Converted amounts (≈) assume the structure as drawn. The source made the active and inactive calls. No cut-off for these calls is given here.

This is an account of results in ChEMBL document CHEMBL4219252, “Synthesis, antimycobacterial activity and influence on mycobacterial InhA and PknB of 12-membered cyclodepsipeptides” (Bioorg Med Chem, 2018).

The subject of series [1] is Escherichia coli. Briefly: Antibacterial activity against Escherichia coli SG458 incubated overnight at 37 degC measured after 24 hrs by agar diffusion method. The series is classed as functional, organism-based. (In general: A growth-free zone around the sample is the usual read-out of agar diffusion tests.)
The subject of series [2] is Bacillus spizizenii. Briefly: Antibacterial activity against Bacillus subtilis ATCC 6633 incubated overnight at 37 degC measured after 24 hrs by agar diffusion method. The series is classed as functional, organism-based.
For series [3], the system named is Sporobolomyces salmonicolor. Briefly: Antifungal activity against Sporobolomyces salmonicolor 549 incubated overnight at 30 degC measured after 24 hrs by agar diffusion method. It counts as functional, organism-based.
Series [4] has as its system Mycolicibacterium smegmatis. Briefly: Antimycobacterial activity against Mycobacterium smegmatis SG987 incubated overnight at 37 degC measured after 24 hrs by agar diffusion method. It counts as functional.
Series [5] concerns Mycolicibacterium vaccae. As to the kind of experiment: Antimycobacterial activity against Mycobacterium vaccae IMET 10670 incubated overnight at 37 degC measured after 24 hrs by agar diffusion method. It counts as functional.
In series [6] the test system is Mycolicibacterium smegmatis. Briefly: Antimycobacterial activity against Mycobacterium smegmatis SG987 after 48 hrs by resazurin microtiter assay. It counts as functional. Background: Alamar Blue is a resazurin reagent that responds to reducing activity.
Series [7] deals with Mycobacterium tuberculosis. As to the kind of experiment: Antimycobacterial activity against Mycobacterium tuberculosis H37Rv after 7 days by BacTiter-Glo microbial cell viability assay. The series is classed as functional.
The test system of series [8] is Mycolicibacterium aurum. As to the kind of experiment: Antimycobacterial activity against Mycobacterium aurum SB66 incubated overnight at 37 degC measured after 24 hrs by agar diffusion method. It counts as functional.
Series [9] is described as follows: Cytotoxicity against human HeLa cells assessed as reduction in cell viability after 72 hrs by CellTiter-Blue1 assay. The series is classed as cell-based.
Series [10] in a line: Antiproliferative activity against human K562 cells after 72 hrs by CellTiter-Blue1 assay. The series is classed as cell-based.
Series [11] is described as follows: Antiproliferative activity against HUVEC after 72 hrs by CellTiter-Blue1 assay. It counts as cell-based. The note with it: human.
For series [12], the target named is T1, Serine/threonine-protein kinase PknB (Mycobacterium tuberculosis) (UniProt P9WI81).
T1 sequence (whole entry): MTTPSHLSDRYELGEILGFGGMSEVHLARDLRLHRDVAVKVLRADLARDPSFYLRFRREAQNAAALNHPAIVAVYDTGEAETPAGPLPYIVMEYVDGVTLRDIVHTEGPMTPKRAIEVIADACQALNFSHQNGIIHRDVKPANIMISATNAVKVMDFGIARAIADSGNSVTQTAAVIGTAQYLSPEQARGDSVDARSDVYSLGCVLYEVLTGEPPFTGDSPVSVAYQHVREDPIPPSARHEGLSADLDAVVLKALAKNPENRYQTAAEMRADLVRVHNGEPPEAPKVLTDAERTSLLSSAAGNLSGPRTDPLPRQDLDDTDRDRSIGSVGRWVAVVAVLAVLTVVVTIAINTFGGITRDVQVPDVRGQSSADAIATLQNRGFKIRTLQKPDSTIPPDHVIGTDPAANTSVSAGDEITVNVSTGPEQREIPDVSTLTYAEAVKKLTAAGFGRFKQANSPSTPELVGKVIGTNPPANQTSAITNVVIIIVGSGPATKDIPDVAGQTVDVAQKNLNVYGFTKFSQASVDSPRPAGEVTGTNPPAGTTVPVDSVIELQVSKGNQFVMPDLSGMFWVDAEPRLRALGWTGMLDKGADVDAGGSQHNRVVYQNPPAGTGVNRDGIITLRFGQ
As to the kind of experiment: Inhibition of Mycobacterium tuberculosis GST-tagged PknB expressed in Escherichia coli assessed as reduction in PknB autophosphorylation at 4.8 uM preincubated for 30 mins followed by [gamma32P]ATP addition measured after 30 mins by scintillation counting method relative to control.

Series [13] concerns the target T1, Serine/threonine-protein kinase PknB (Mycobacterium tuberculosis). As to the kind of experiment: Inhibition of Mycobacterium tuberculosis GST-tagged PknB expressed in Escherichia coli assessed as reduction in PknB autophosphorylation at 0.24 to 4.8 uM preincubated for 30 mins followed by [gamma32P]ATP addition measured after 30 mins by scintillation counting method.

For series [14] the target is unchanged. As to the kind of experiment: Induction of Mycobacterium tuberculosis GST-tagged PknB autophosphorylation expressed in Escherichia coli at 4.8 uM preincubated for 30 mins followed by [gamma32P]ATP addition measured after 30 mins by scintillation counting method relative to control.
Setting [15] is: Mycobacterium tuberculosis, H37Rv, 168 h, read-out: MIC.

Take `C[C@@H](OCc1ccccc1)C(=O)O[C@H](C)[C@H](NC(=O)c1ncccc1F)C(=O)NCCCC(=O)OCc1ccccc1`: the result in series [1], in series [2] and in series [3] was inactive.

Regarding `C[C@H]1OC(=O)COC(=O)CCC(Cc2ccccc2)NC(=O)[C@H]1NC(=O)OC(C)(C)C` (stereo in doubt; form 2) [listing 1 of 2 here], the “diameter of the inhibition zone (DIZ)” value was 21 mm in series [4], 24 - 31 mm in series [5] and 0 mm in series [8]. Moreover, the values for the MIC in series [6] and in series [7] (setting [15]) were 7.2 µM (≈ 3.13 µg/mL) and 4 µM (≈ 1.74 µg/mL), respectively. Besides, in series [9], the CC50 at 72 h fell in the range of 5 to 50 µg/mL (≈ 11.5 to 115 µM). Besides, the GI50 at 72 h in series [10] and in series [11] was 5 to 50 µg/mL (≈ 11.5 to 115 µM) throughout.

For `C[C@@H](OC(=O)COCc1ccccc1)[C@H](NC(=O)c1ccccn1)C(=O)NCCCC(=O)OCc1ccccc1`, the result in series [1], in [2] and in series [3] was inactive.

Regarding `C[C@H]1OC(=O)COC(=O)CCCNC(=O)[C@H]1NC(=O)c1ccccn1`, the result in series [1], in series [2] and in series [3] was inactive.

With `C[C@@H](OC(=O)COCc1ccccc1)[C@H](NC(=O)c1ccccc1O)C(=O)NCCCC(=O)OCc1ccccc1`, the result in series [1], in series [2] and in series [3] was inactive.

In the case of `C[C@H]1OC(=O)c2ccccc2OC(=O)CCNC(=O)[C@H]1NC(=O)OC(C)(C)C`, the outcome in [1], in series [2] and in series [3] was inactive.

Take `C[C@@H](O)C(=O)O[C@H](C)[C@H](NC(=O)OC(C)(C)C)C(=O)NC(CCC(=O)O)Cc1ccccc1` (stereo not given in full): the result in [6] and in [7] was inactive.

Regarding `C[C@H]1OC(=O)COC(=O)CCCNC(=O)[C@H]1NC(=O)c1ncccc1O`, the outcome in [1], in series [2] and in series [3] was inactive.

Turning to `C[C@H]1OC(=O)COC(=O)CCC(Cc2ccccc2)NC(=O)[C@H]1NC(=O)OC(C)(C)C` (stereo in doubt; form 2) [listing 2 of 2 here], the outcome in series [1], in series [2] and in series [3] was inactive. Besides, the inhibition in series [12] worked out at 60%.

For `C[C@H]1OC(=O)CCC(Cc2ccccc2)NC(=O)[C@@H](NC(=O)OC(C)(C)C)[C@@H](C)OC1=O` (stereo in doubt; form 2) [listing 1 of 2 here], the result in [1], in [2] and in series [3] was inactive. The inhibition result in series [13] was “inactive”. The same molecule came in with an Activity in series [14] of 60%. For the same molecule, the fold change (FC) in series [14] came to 2.

Take `C[C@@H](OC(=O)CO)[C@H](NC(=O)OC(C)(C)C)C(=O)NC(CCC(=O)O)Cc1ccccc1` (stereo not given in full): the outcome in series [6] and in [7] was inactive.

For `COC(=O)CCC(Cc1ccccc1)NC(=O)[C@@H](NC(=O)OC(C)(C)C)[C@@H](C)OC(=O)[C@@H](C)O` (stereo not given in full), the result in series [1], in series [2], in [3], in series [4] and in series [5] was inactive. Besides, the inhibition entry in series [13] is “inactive”.

For `C[C@H]1OC(=O)CCC(Cc2ccccc2)NC(=O)[C@@H](NC(=O)OC(C)(C)C)[C@@H](C)OC1=O` (stereo in doubt; form 2) [listing 2 of 2 here], the “diameter of the inhibition zone (DIZ)” value in [4], in series [5] and in series [8] was 0 mm each time. Besides, the MIC in series [7] (setting [15]) was 125 µM (≈ 56.1 µg/mL).

As to `C[C@@H](OC(=O)COCc1ccccc1)[C@H](NC(=O)c1ncccc1O)C(=O)NCCCC(=O)OCc1ccccc1`, the outcome in series [1], in series [2] and in series [3] was inactive.

As to `CC[C@H](C)[C@@H]1NC(=O)C[C@H](CC(C)C)CNC(=O)[C@@H](NC(=O)c2ccccn2)[C@@H](C)OC1=O`, the result in series [1], in [2], in series [3], in series [6] and in [7] was inactive.

Turning to `C[C@H]1OC(=O)COC(=O)CCC(Cc2ccccc2)NC(=O)[C@H]1NC(=O)OC(C)(C)C` (stereo in doubt; form 1) [listing 1 of 2 here], the result in series [1], in [2] and in series [3] was inactive. Further, the inhibition in series [12] stood at 60%.

Regarding `C[C@@H](OC(=O)COCc1ccccc1)[C@H](NC(=O)c1ncccc1F)C(=O)NCCCC(=O)OCc1ccccc1`, the outcome in series [1], in series [2] and in series [3] was inactive.

Turning to `C[C@H]1OC(=O)COC(=O)CCC(Cc2ccccc2)NC(=O)[C@H]1NC(=O)OC(C)(C)C` (stereo in doubt; form 1) [listing 2 of 2 here], the “diameter of the inhibition zone (DIZ)” value in series [4] is on record as 17 mm; in series [5] it was 20 - 26 mm. Besides, the figures for the MIC in series [6] and in [7] were 28.8 µM (≈ 12.5 µg/mL) and 8 µM (≈ 3.48 µg/mL), respectively.

With `NNC(=O)c1ccncc1` [ISONIAZID], the MIC was found to be 29.2 µM (≈ 4 µg/mL) in [6] (Mycolicibacterium smegmatis, SG987, 48 h, read-out: MIC) and 0.31 µM (≈ 0.0425 µg/mL) in [7] (setting [15]).

As for `C[C@@H](OCc1ccccc1)C(=O)O[C@H](C)[C@H](NC(=O)c1ccccn1)C(=O)NCCCC(=O)OCc1ccccc1`, the outcome in series [1], in [2] and in series [3] was inactive.

`C[C@H]1OC(=O)CCCNC(=O)[C@@H](NC(=O)c2ccccn2)[C@@H](C)OC1=O`: the result in series [1], in series [2] and in [3] was inactive.

As to `C[C@@H](OCc1ccccc1)C(=O)O[C@H](C)[C@H](NC(=O)c1ncccc1O)C(=O)NCCCC(=O)OCc1ccccc1`, the outcome in series [1], in series [2] and in series [3] was inactive.

For the molecule `C[C@H]1OC(=O)c2ccccc2OC(=O)CCNC(=O)[C@H]1NC(=O)c1ncccc1O`, the outcome in [1], in series [2], in [3], in series [6] and in [7] was inactive.

As for `C[C@H]1OC(=O)CCCNC(=O)[C@@H](NC(=O)c2ncccc2O)[C@@H](C)OC1=O`, the outcome in [1], in series [2] and in [3] was inactive.

Regarding `C[C@H]1OC(=O)CCC(Cc2ccccc2)NC(=O)[C@@H](NC(=O)OC(C)(C)C)[C@@H](C)OC1=O` (stereo in doubt; form 1), the result in [1], in series [2] and in series [3] was inactive.

Turning to `C[C@@H](OCc1ccccc1)C(=O)O[C@H](C)[C@H](NC(=O)c1ccccc1O)C(=O)NCCCC(=O)OCc1ccccc1`, the result in series [1], in [2] and in series [3] was inactive.

In the case of `CC/C(C)=C1\OC(=O)[C@H](C)[C@@H](O)[C@H](Cc2cccnc2)NC(=O)[C@@H](NC(=O)c2ncccc2O)[C@@H](C)OC1=O`, the inhibition entry in series [13] was “inactive”.

Usually MIC stands for the lowest concentration that inhibits growth of the organism. As a reminder, the CC50 is the concentration at which the toxic effect on the cells reaches its halfway point. As usually defined, the GI50 is the concentration giving 50% growth inhibition. Lower therefore signals greater sensitivity of the cells. In general, inhibition refers to the relative decrease from the control value, in per cent.
